Test results reported in paper PMC2594009 (Structure (London, England : 1993), 2008).
Values joined by “and” are separate entries in the source; they are usually repeats but may differ in a detail not shown here. Equal values may be shown once. “Also recorded” adds a separate entry of the source.

Tests used:
L26F AM2 = assay type: cell-based, influenza A virus; settings: pH 5.5
S31N AM2 = assay type: cell-based, influenza A virus; settings: pH 5.5

SMILES: NC12CC3CC(CC(C3)C1)C2 [amantadine]
- inhibition of the inward current (L26F AM2): 47% and 46.8 ± 0.7%
- reversibility of inhibition after removal of the drug (L26F AM2): reversibly inhibited; also recorded: readily reversible
- inhibition of the inward current (S31N AM2): 30% and 30.7 ± 1.8%
- reversibility of inhibition after removal of the drug (S31N AM2): immediately reversed; also recorded: highly reversible
